1 compound from patent publication US7862798B2, “Vitamin-targeted imaging agents” (Endocyte, Inc., priority 2002, dated 2011) can be followed below.

The structures appear in SMILES notation. Entries after “also recorded” stand apart in the source; their conditions may differ.

The test system of one data set is FR-positive M109 tumors. Description: Gamma scintigraphy. The format is in vivo, Balb/c mice. The following applies: 4 hr after i.v. administration, M109 tumor-bearing Balb/c mouse. As to the method:
Whole body image acquisition was performed for 1 minute at a count rate of 50-75,000 counts per minute using a Technicare Omega 500 Sigma 410 Radioisotope Gamma Camera. All data were analyzed using a Medasys MS-DOS-based computer equipped with Medasys Pinnacle software.

The nature of the next data set: Blood clearance. The format is in vivo, Balb/c mice. The procedure: Animals used for this study were maintained on a folate-free diet (Harlan #TD-90261) for approximately three weeks prior to dose administration. […] Furthermore, previous studies have shown that mice placed on a folate-free diet for 3 weeks had maintained a safe serum folate level of 25±7 nM, which is slightly higher than the 9-14 nM concentration measurable in human serum.
The ^99mTc-EC20 solution was prepared on the day of use and had initially contained 100 μg of EC20 per milliliter. The solution was further diluted with sterile saline to prepare working stock solutions. The radiochemical purity of the product was estimated to be ˜94% by TLC. Each animal received a dose of 50 μg/kg EC20 (67 nmol/kg) in approximately 0.1 mL volume i.v. via the tail vein during brief diethyl ether anesthesia. At the designated times (see FIG. 8) post-injection, each animal was euthanized by CO2 asphyxiation, and blood was immediately collected by cardiac puncture.

Data set [1] is described as follows: HPLC speciation of the 99mTc-EC20 standard in saline over 6 hr. It counts as physicochemical. The following applies: for Area Percent, Sum C and D / Area Percent, peak A (pertechnetate) / Area Percent, peak B (unknown) / Area Percent, peak C (isomer 1) / Area Percent, peak D (isomer 2): 99mTc-EC20 Standard. As to the method: The urinary HPLC speciation profile of ^99mTc-EC20 was obtained using Balb/c mice. Mice (˜20 g each) were injected with 1 mCi (6.7 nmol) of ^99mTc-EC20 via a lateral tail vein. Following a 1, 4, or 6 hour time period, groups of two mice were euthanized by CO2 asphyxiation and urine was collected. After filtration through a GV13 Millex filter, the radiochemical speciation was assessed using an HPLC system equipped with a Nova-Pak C18 3.9×150 mm column and a radiochemical detector. The system was isocratically eluted with 20% methanol containing 0.1% TFA at a flow rate of 1 mL/minute.
It was previously determined that the primary elimination route for ^111In-DTPA-Folate was via the urine. […] As shown in Table 4 (below), the radiochemical purity of the standard (sum of peaks C and D presumably corresponding to the syn and anti ^99mTc-EC20) remained constant at ˜93% over the 6 hr duration of this experiment. The amount of free ^99mTc in the standard (peak A) was ˜2%.

Data set [2] is described as follows: Serum protein binding (ultrafiltration), human serum. The format is in vitro ADME. The following applies: room temperature, ultrafiltration 30,000 NMWL. The procedure: Fresh rat serum, and commercial male human serum (type AB donors, Sigma Chemical Co.) were used to evaluate in vitro binding of ^99mTc˜EC20 to serum proteins. One minute after ^99mTc-EC20 was mixed with 1 mL of serum at room temperature, 0.3 mL of the serum solution was transferred to a clean Amicon Centrifree® ultrafiltration device (30,000 NMWL) in triplicate. Within one minute of loading the centrifuge with the serum solution, the device was spun at 1000×g for 20 minutes at 20° C. 50 μL samples of the original solution, and of the filtrate from each device, was transferred to a clean tube and counted in an automatic gamma counter. A control solution of ^99mTc˜EC20 mixed with 1 mL of normal saline was ultrafiltered in an identical fashion. The percentage of free ^99mTc was calculated for each of the three samples.

A short description of data set [3]: Radiochemical stability by HPLC. The format is physicochemical. Particulars: room temperature, protected from light, at least 24 hours. The procedure: The radiochemical stability of the radioactive drug substance was determined by HPLC after storing at room temperature protected from light for up to 24 hours. Samples of the ^99mTc-EC20 solution (20 μL) were analyzed using an HPLC system consisting of a Waters 600E Multisolvent Delivery System and 490 UV detector, a Bioscan EC-3200 radiodetector, Laura v1.5 radiochromatogram software, and a Waters Nova-Pak C18 (3.9×150 mm) column. Injected samples were eluted isocratically using an aqueous mobile phase containing 20% methanol and 0.1% trifluoroacetic acid at a flow rate of 1 mL/min. The HPLC analysis was monitored with both the UV detector (280 nm) and the gamma radiodetector.

Turning to `[NH-][C@@H](CNC(=O)CC[C@@H](NC(=O)c1ccc(NCc2cnc3nc(N)[nH]c(=O)c3n2)cc1)C(=O)O)C(=O)[N-][C@@H](CC(=O)O)C(=O)[N-][C@@H](C[S-])C(=O)O.[O]=[Tc+4]` [^99mTc-EC20], in the data set on FR-positive M109 tumors, the “whole-body gamma image, localization of radiotracer” value was “localizes the gamma radiation to the two kidneys (K) and the M109 tumor mass; also recorded: Only the kidneys (K) and tumor (T) exhibit significant accumulation”. In addition, the plasma half life in “Blood clearance” (50 μg/kg EC20 i.v., Balb/c mouse) was ~4 min. For the same compound, in the data set “Blood clearance” (after four hours, blood assumed 5.5% of body mass), the “injected dose remaining in circulation” value is “less than 0.2%”. Further, in data set [1] (0 hr), the “Area Percent, Sum C and D” value was 93.5 Area Percent; the “Area Percent, peak A (pertechnetate)” value is recorded as 2 Area Percent; the “Area Percent, peak B (unknown)” value worked out at 4.5 Area Percent; the “Area Percent, peak C (isomer 1)” value is recorded as 15.5 Area Percent. Moreover, the “Area Percent, peak D (isomer 2)” value in data set [1] (0 hr) was 78 Area Percent. In data set [1] (1 hr), the “Area Percent, Sum C and D” value was found to be 93.4 Area Percent; the “Area Percent, peak A (pertechnetate)” value stood at 2.1 Area Percent; the “Area Percent, peak B (unknown)” value is recorded as 4.5 Area Percent; the “Area Percent, peak C (isomer 1)” value was 15.7 Area Percent. The “Area Percent, peak D (isomer 2)” value in data set [1] (1 hr) is given as 77.7 Area Percent. Moreover, in data set [1] (6 hr), the “Area Percent, Sum C and D” value was found to be 93.4 Area Percent; the “Area Percent, peak A (pertechnetate)” value was 1.8 Area Percent; the “Area Percent, peak B (unknown)” value is 4.8 Area Percent; the “Area Percent, peak C (isomer 1)” value amounted to 15.9 Area Percent. In addition, the “Area Percent, peak D (isomer 2)” value in data set [1] (6 hr) amounted to 77.5 Area Percent. The “radiochemical purity of the standard (sum of peaks C and D)” value in data set [1] (constant over the 6 hr duration, saline solution) is recorded as ~93%. In addition, in data set [1] (saline solution), the “free 99mTc in the standard (peak A)” value is reported as ~2%. Besides, the “associated with the >30 kDa serum protein fraction” value in data set [2] came to 72%. Moreover, the “radiochemical purity on storage” value in data set [3] is “greater than 90%”.
